The values below come from patent US9302988B2, “Fluoromethyl-substituted pyrrole carboxamides” (GRÜNENTHAL GMBH, priority 2012, dated 2016).

T1 sequence (Q00975 whole entry): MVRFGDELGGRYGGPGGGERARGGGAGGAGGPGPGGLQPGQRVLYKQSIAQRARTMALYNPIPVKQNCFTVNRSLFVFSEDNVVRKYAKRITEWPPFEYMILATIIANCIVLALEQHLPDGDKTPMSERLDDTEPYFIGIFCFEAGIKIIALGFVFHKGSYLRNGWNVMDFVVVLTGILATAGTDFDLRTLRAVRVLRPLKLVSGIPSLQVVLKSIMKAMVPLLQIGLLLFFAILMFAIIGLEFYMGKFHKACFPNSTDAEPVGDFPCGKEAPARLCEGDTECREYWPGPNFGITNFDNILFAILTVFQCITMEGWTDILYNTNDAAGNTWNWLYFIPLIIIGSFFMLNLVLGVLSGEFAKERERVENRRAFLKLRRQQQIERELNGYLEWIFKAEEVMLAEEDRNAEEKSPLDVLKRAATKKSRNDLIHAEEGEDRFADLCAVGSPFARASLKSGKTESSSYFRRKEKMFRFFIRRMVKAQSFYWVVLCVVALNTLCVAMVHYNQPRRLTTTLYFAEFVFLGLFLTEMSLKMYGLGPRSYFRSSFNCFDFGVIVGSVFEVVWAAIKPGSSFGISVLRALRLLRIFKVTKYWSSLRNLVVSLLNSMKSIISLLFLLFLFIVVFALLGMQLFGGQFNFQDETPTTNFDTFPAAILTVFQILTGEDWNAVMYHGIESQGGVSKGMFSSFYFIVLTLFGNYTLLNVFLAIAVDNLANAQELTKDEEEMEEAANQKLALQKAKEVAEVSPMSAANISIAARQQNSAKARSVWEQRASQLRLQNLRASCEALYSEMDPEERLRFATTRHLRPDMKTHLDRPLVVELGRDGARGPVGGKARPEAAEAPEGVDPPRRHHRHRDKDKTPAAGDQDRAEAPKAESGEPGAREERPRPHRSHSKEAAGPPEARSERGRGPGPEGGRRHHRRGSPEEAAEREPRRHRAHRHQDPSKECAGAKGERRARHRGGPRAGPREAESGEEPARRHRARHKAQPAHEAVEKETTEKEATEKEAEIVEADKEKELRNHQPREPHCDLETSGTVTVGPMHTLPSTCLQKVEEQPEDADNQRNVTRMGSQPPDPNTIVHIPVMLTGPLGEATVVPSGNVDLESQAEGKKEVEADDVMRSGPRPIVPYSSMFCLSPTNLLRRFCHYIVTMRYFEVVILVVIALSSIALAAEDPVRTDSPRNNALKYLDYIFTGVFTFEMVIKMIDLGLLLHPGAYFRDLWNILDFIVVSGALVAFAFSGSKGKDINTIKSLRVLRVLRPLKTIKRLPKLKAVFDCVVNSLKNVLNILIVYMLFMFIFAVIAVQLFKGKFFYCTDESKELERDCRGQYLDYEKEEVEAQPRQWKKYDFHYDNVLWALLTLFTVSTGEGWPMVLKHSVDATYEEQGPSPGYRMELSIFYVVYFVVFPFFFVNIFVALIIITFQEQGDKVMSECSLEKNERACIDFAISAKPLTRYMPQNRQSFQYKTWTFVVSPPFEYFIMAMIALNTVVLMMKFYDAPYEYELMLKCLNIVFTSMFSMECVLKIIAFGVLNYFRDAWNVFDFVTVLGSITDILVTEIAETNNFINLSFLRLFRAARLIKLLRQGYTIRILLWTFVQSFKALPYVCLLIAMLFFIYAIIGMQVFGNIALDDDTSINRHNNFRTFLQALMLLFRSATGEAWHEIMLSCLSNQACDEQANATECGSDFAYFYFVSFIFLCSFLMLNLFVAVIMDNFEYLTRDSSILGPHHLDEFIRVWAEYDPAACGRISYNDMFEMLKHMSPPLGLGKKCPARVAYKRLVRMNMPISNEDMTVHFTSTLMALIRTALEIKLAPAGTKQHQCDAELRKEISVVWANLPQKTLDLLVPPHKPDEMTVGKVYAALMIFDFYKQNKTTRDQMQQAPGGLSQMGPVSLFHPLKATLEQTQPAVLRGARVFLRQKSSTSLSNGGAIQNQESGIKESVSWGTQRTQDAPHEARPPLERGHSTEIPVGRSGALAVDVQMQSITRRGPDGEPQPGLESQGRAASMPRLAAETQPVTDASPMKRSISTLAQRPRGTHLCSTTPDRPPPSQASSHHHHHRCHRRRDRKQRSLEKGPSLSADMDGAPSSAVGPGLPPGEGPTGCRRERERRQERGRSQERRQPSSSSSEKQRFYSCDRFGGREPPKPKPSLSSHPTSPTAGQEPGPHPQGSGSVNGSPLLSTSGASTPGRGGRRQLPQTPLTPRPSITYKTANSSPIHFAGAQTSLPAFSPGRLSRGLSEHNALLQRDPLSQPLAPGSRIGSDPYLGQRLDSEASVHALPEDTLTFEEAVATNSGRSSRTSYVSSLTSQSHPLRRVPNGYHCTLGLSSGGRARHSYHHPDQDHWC
T1 sequence (P54289 25-1103, further chain): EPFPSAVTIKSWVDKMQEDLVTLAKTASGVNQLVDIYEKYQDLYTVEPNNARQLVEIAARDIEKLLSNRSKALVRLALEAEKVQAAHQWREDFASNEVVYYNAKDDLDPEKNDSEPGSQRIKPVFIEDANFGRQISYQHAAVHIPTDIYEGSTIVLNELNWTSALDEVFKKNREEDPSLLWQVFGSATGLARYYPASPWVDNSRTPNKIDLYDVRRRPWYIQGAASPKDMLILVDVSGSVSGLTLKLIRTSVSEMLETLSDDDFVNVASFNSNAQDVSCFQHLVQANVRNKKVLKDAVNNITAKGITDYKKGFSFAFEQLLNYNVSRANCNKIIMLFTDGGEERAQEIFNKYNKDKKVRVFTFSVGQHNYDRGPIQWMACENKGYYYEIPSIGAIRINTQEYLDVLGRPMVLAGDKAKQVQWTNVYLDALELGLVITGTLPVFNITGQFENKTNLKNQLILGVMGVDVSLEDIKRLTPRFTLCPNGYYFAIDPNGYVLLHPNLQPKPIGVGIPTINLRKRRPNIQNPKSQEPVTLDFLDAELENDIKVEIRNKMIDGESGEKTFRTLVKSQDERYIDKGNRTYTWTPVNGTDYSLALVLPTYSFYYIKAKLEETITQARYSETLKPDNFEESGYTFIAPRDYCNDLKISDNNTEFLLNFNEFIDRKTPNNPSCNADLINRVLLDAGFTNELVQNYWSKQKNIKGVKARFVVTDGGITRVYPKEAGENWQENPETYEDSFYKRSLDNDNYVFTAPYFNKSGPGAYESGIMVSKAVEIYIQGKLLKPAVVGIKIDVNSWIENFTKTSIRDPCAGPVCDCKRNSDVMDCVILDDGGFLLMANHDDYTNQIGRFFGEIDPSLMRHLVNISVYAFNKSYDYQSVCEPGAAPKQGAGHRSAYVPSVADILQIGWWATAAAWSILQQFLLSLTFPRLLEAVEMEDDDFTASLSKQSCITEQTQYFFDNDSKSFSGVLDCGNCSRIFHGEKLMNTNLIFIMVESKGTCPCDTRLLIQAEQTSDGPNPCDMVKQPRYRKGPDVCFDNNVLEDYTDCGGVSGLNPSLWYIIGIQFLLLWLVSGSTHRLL
T1 sequence (P54284 whole entry, further chain): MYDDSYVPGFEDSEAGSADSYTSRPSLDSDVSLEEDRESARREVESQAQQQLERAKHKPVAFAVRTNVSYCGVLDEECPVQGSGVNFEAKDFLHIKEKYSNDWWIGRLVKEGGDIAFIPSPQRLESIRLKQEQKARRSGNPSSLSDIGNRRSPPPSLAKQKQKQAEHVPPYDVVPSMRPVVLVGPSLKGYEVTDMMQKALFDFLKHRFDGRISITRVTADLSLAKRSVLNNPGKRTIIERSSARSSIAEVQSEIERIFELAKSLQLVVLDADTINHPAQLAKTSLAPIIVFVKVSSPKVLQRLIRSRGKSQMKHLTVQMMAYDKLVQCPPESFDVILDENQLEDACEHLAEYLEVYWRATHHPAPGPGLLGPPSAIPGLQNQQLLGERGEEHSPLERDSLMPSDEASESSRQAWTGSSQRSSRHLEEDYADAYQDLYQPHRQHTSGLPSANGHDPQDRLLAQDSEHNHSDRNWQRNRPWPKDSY

This experiment concerns the target T1, Human CaV2.2 channels (Homo sapiens, UniProt Q00975).
T1 construct: expressed in transfected cells
Put plainly: Fluorescent assay for CaV2.2 channels using potassium depolarization to induce channel opening (FLIPR, Fluo-4). In kind it is cell-based. Conditions: 3 μM test compound, 30 mM KCl, HEK293 cells stably expressing human CaV2.2; read-out: %-Inhib (CaV2.2) @3 μM @30 mM KCl. An outline of the steps: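 HEK293 cells stably co-expressing CaV2.2 with α2δ and β subunits plus Kir2.3 were Fluo-4 loaded, then preincubated 15 min at 25 °C with compound in 30 mM KCl buffer, pH 7.4. Depolarization was by adding buffer containing 210 mM KCl. Inhibition was taken from baseline-normalized peak fluorescence amplitude (ex 480/em 535 nm).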
Regarding `Cc1c(-c2ccc(Cl)cc2F)c(C(=O)N(CCS(C)(=O)=O)C(C)C)n(Cc2ccccc2)c1C(F)(F)F` [SC-169, 1-Benzyl-3-(4-chloro-2-fluoro-phenyl)-N-isopropyl-4-methyl-N-(2-methylsulfonyl-ethyl)-5-(trifluoromethyl)-1H-pyrrole-2-carboxylic acid amide], the inhibition at 3 µM was 75 to 95%. As for `CN(CC1(C)COC1)C(=O)c1c(-c2ccc(Cl)cc2)cc(C(F)(F)F)n1Cc1ccccc1` [SC-78, 1-Benzyl-3-(4-chlorophenyl)-N-methyl-N-[(3-methyl-oxetan-3-yl)-methyl]-5-(trifluoromethyl)-1H-pyrrole-2-carboxylic acid amide], the figure is over 95%; as for `Cc1c(-c2ccc(Cl)cc2F)c(C(=O)N2CCS(=O)(=O)C(C)(C)C2)n(Cc2ccccc2)c1C(F)(F)F` [SC-170, [1-Benzyl-3-(4-chloro-2-fluoro-phenyl)-4-methyl-5-(trifluoromethyl)-1H-pyrrol-2-yl]-(2,2-dimethyl-1,1-dioxo-[1,4]thiazinan-4-yl)-methanone], over 95%. The figure for `Cc1c(-c2ccc(Cl)cc2)c(C(=O)N(C)CCS(C)(=O)=O)n(Cc2ccccc2)c1C(F)(F)F` [SC-06, 1-Benzyl-3-(4-chlorophenyl)-N,4-dimethyl-N-(2-methylsulfonyl-ethyl)-5-(trifluoromethyl)-1H-pyrrole-2-carboxylic acid amide] is over 95%.

Consider `CCN(CCS(C)(=O)=O)C(=O)c1c(-c2ccc(Cl)cc2)c(C)c(C(F)(F)F)n1Cc1ccccc1` [SC-128, 1-Benzyl-3-(4-chlorophenyl)-N-ethyl-4-methyl-N-(2-methylsulfonyl-ethyl)-5-(trifluoromethyl)-1H-pyrrole-2-carboxylic acid amide], for which the inhibition at 3 µM was over 95%. As for `CN(C(=O)c1c(-c2ccc(Cl)cc2)cc(C(F)(F)F)n1Cc1ccccc1)C(C)(C)CCO` [SC-184, 1-Benzyl-3-(4-chlorophenyl)-N-(3-hydroxy-1,1-dimethyl-propyl)-N-methyl-5-(trifluoromethyl)-1H-pyrrole-2-carboxylic acid amide], the figure is 75 to 95%; as for `Cc1c(-c2ccc(F)c(Cl)c2)c(C(=O)N2CCOC(C)(C)C2)n(Cc2ccccc2)c1C(F)(F)F` [SC-258, [1-Benzyl-3-(3-chloro-4-fluoro-phenyl)-4-methyl-5-(trifluoromethyl)-1H-pyrrol-2-yl]-(2,2-dimethyl-morpholin-4-yl)-methanone], 75 to 95%. Turning to `COc1cccc(-n2c(C(=O)N3CC(F)(F)C3)c(-c3ccc(Cl)cc3)c(C)c2C(F)(F)F)c1` [SC-32, [3-(4-Chlorophenyl)-1-(3-methoxyphenyl)-4-methyl-5-(trifluoromethyl)-1H-pyrrol-2-yl]-(3,3-difluoro-azetidin-1-yl)-methanone], the inhibition at 3 µM lay within 75 to 95%. In the case of `Cc1c(-c2ccc(Cl)cc2)c(C(=O)N(C)CC2CCCCO2)n(Cc2ccccc2)c1C(F)(F)F` (centres unmarked) [SC-138, 1-Benzyl-3-(4-chlorophenyl)-N,4-dimethyl-N-(tetrahydro-pyran-2-yl-methyl)-5-(trifluoromethyl)-1H-pyrrole-2-carboxylic acid amide], the inhibition at 3 µM is 75 to 95%. The figure for `CN(CC1(CO)CC1)C(=O)c1c(-c2ccc(Cl)cc2)cc(C(F)(F)F)n1Cc1ccccc1` [SC-178, 1-Benzyl-3-(4-chlorophenyl)-N-[[1-(hydroxymethyl)-cyclopropyl]-methyl]-N-methyl-5-(trifluoromethyl)-1H-pyrrole-2-carboxylic acid amide] is over 95%; for `CC(C)S(=O)(=O)CCN(C)C(=O)c1c(-c2ccc(Cl)cc2)cc(C(F)(F)F)n1Cc1ccccc1` [SC-194, 1-Benzyl-3-(4-chlorophenyl)-N-[2-(isopropylsulfonyl)-ethyl]-N-methyl-5-(trifluoromethyl)-1H-pyrrole-2-carboxylic acid amide] it is over 95%. With `Cc1c(-c2ccc(Cl)cc2)c(C(=O)N(C)CC(C)(C)C)n(Cc2cccc(Cl)c2)c1C(F)(F)F` [SC-53, 3-(4-Chlorophenyl)-1-[(3-chlorophenyl)-methyl]-N-(2,2-dimethyl-propyl)-N,4-dimethyl-5-(trifluoromethyl)-1H-pyrrole-2-carboxylic acid amide], the inhibition at 3 µM lay within 75 to 95%. As for `CC(C)N(C)C(=O)c1c(-c2ccc(Cl)cc2)cc(C(F)(F)F)n1Cc1ccccc1` [SC-213, 1-Benzyl-3-(4-chlorophenyl)-N-isopropyl-N-methyl-5-(trifluoromethyl)-1H-pyrrole-2-carboxylic acid amide], the inhibition at 3 µM is over 95%.

For the molecule `Cc1c(-c2ccc(Cl)cc2)c(C(=O)N(C)CCNS(C)(=O)=O)n(Cc2ccccc2)c1C(F)(F)F` [SC-38, 1-Benzyl-3-(4-chlorophenyl)-N-[2-(methanesulfonamido)-ethyl]-N,4-dimethyl-5-(trifluoromethyl)-1H-pyrrole-2-carboxylic acid amide], the inhibition at 3 µM was over 95%. As for `Cc1c(-c2ccc(Cl)cc2)c(C(=O)N2CCNC(=O)C2)n(Cc2cccc(Cl)c2)c1C(F)(F)F` [SC-55, 4-[3-(4-Chlorophenyl)-1-[(3-chlorophenyl)-methyl]-4-methyl-5-(trifluoromethyl)-1H-pyrrole-2-carbonyl]-piperazin-2-one], the inhibition at 3 µM was over 95%.

Regarding `CN(CC(C)(C)CO)C(=O)c1c(-c2ccc(Cl)cc2)cc(C(F)(F)F)n1Cc1ccccc1` [SC-79, 1-Benzyl-3-(4-chlorophenyl)-N-(3-hydroxy-2,2-dimethyl-propyl)-N-methyl-5-(trifluoromethyl)-1H-pyrrole-2-carboxylic acid amide], the inhibition at 3 µM is over 95%. For `Cc1c(-c2ccc(F)c(Cl)c2)c(C(=O)N(C)CCS(C)(=O)=O)n(Cc2ccccc2)c1C(F)(F)F` [SC-252, 1-Benzyl-3-(3-chloro-4-fluoro-phenyl)-N,4-dimethyl-N-(2-methylsulfonyl-ethyl)-5-(trifluoromethyl)-1H-pyrrole-2-carboxylic acid amide], the inhibition at 3 µM was over 95%. As for `O=C(c1c(-c2ccc(Cl)cc2F)cc(C(F)(F)F)n1Cc1ccccc1)N1CCOCC1` [SC-86, [1-Benzyl-3-(4-chloro-2-fluoro-phenyl)-5-(trifluoromethyl)-1H-pyrrol-2-yl]-morpholin-4-yl-methanone], the inhibition at 3 µM is over 95%.

On to `Cc1c(-c2ccc(Cl)cc2F)c(C(=O)N(C)CC(C)(C)CO)n(Cc2ccccc2)c1C(F)(F)F` [SC-107, 1-Benzyl-3-(4-chloro-2-fluoro-phenyl)-N-(3-hydroxy-2,2-dimethyl-propyl)-N,4-dimethyl-5-(trifluoromethyl)-1H-pyrrole-2-carboxylic acid amide], for which the inhibition at 3 µM is over 95%.

As to `Cc1c(-c2ccc(Cl)cc2)c(C(=O)N2CC[S+]([O-])CC2)n(Cc2ccccc2)c1C(F)(F)F` [SC-19, [1-Benzyl-3-(4-chlorophenyl)-4-methyl-5-(trifluoromethyl)-1H-pyrrol-2-yl]-(1-oxo-[1,4]thiazinan-4-yl)-methanone], the inhibition at 3 µM is over 95%. For `Cc1c(-c2ccc(Cl)cc2)c(C(=O)N(C)CC(C)(C)CO)n(Cc2ccccc2)c1C(F)(F)F` [SC-106, 1-Benzyl-3-(4-chlorophenyl)-N-(3-hydroxy-2,2-dimethyl-propyl)-N,4-dimethyl-5-(trifluoromethyl)-1H-pyrrole-2-carboxylic acid amide], the inhibition at 3 µM is over 95%. For the molecule `Cc1c(-c2ccc(Cl)cc2)c(C(=O)N2CC(O)C2)n(Cc2ccccc2)c1C(F)(F)F` [SC-05, [1-Benzyl-3-(4-chlorophenyl)-4-methyl-5-(trifluoromethyl)-1H-pyrrol-2-yl]-(3-hydroxy-azetidin-1-yl)-methanone], the inhibition at 3 µM lay in the range of 75 to 95%. In the case of `O=C(c1c(-c2ccc(Cl)cc2)cc(C(F)(F)F)n1Cc1ccccc1)N1CCOCC1` [SC-01, [1-Benzyl-3-(4-chlorophenyl)-5-(trifluoromethyl)-1H-pyrrol-2-yl]-morpholin-4-yl-methanone], the inhibition at 3 µM was over 95%.

In the case of `Cc1c(-c2ccc(F)cc2)c(C(=O)N2CC(O)C2)n(Cc2ccccc2)c1C(F)(F)F` [SC-223, [1-Benzyl-3-(4-fluorophenyl)-4-methyl-5-(trifluoromethyl)-1H-pyrrol-2-yl]-(3-hydroxy-azetidin-1-yl)-methanone], the inhibition at 3 µM lay in the range of 75 to 95%.

On to `Cc1c(-c2ccc(Cl)cc2)c(C(=O)N2CC(F)(F)C2)n(-c2cccc(Cl)c2)c1C(F)(F)F` [SC-33, [1-(3-Chlorophenyl)-3-(4-chlorophenyl)-4-methyl-5-(trifluoromethyl)-1H-pyrrol-2-yl]-(3,3-difluoro-azetidin-1-yl)-methanone], for which the inhibition at 3 µM was 75 to 95%.

As for `CC(C)(CO)CNC(=O)c1c(-c2ccc(Cl)cc2)cc(C(F)(F)F)n1Cc1ccccc1` [SC-177, 1-Benzyl-3-(4-chlorophenyl)-N-(3-hydroxy-2,2-dimethyl-propyl)-5-(trifluoromethyl)-1H-pyrrole-2-carboxylic acid amide], the inhibition at 3 µM is over 95%.

For `CS(=O)(=O)C1CN(C(=O)c2c(-c3ccc(Cl)cc3)cc(C(F)(F)F)n2Cc2ccccc2)C1` [SC-201, [1-Benzyl-3-(4-chlorophenyl)-5-(trifluoromethyl)-1H-pyrrol-2-yl]-(3-methylsulfonyl-azetidin-1-yl)-methanone], the inhibition at 3 µM was in the range of 75 to 95%. As for `CN(CC(C)(C)C(N)=O)C(=O)c1c(-c2ccc(Cl)cc2)cc(C(F)(F)F)n1Cc1ccccc1` [SC-174, 1-Benzyl-N-(2-carbamoyl-2-methyl-propyl)-3-(4-chlorophenyl)-N-methyl-5-(trifluoromethyl)-1H-pyrrole-2-carboxylic acid amide], the figure is over 95%. Turning to `CN(CCS(C)(=O)=O)C(=O)c1c(-c2ccc(Cl)cc2)cc(C(F)(F)F)n1Cc1cccc(Cl)c1` [SC-69, 3-(4-Chlorophenyl)-1-[(3-chlorophenyl)-methyl]-N-methyl-N-(2-methylsulfonyl-ethyl)-5-(trifluoromethyl)-1H-pyrrole-2-carboxylic acid amide], the inhibition at 3 µM is 75 to 95%.
